Data: patent US20250114460A1, “NOVEL PLK1 DEGRADATION INDUCING COMPOUND” (UPPTHERA, INC., priority 2021, published 2025)

Experiments:
Format in all cases: cell-based
PLK1 = target: T1, PLK1 (Homo sapiens, UniProt P53350); experiment: Luciferase assay for PLK1 in HeLa LgBit (Plk1-HiBit KI) cell line; conditions: 300 nM compound, luminescence after 9 hours
T1 construct: endogenous in cells; host or cells: HeLa LgBit (Plk1-HiBit KI): HeLa stably expressing LgBit, with a CRISPR/Cas9 knock-in of HiBit at the endogenous PLK1 locus
Outline: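 HeLa cells stably expressing LgBit, with HiBit knocked in at the C-terminus of endogenous Plk1, released from a 24 h 2 mM thymidine block and grown 18 h. Endurazine added, then compound at 300 nM; luminescence tracked in real time, expressed as ratio to DMSO.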

NCI-H526 cell line = experiment: Cell viability assay for H526 cell (EZ-Cytox); conditions: Homo sapiens, NCI-H526, 120 h; H526 cells, 5 days, 3000 nM to 0.46 nM
Outline: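 NCI-H526 cells were exposed to compound in CO2 incubator culture for 5 days. Viability was read by EZ-Cytox absorbance at 450 nm after 3 min shaking, giving IC50 values.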

MRC-5 cell line = experiment: Cell viability assay for MRC-5 cell line (EZ-Cytox); conditions: Homo sapiens, MRC5, 120 h; MRC-5 normal cell line, 5 days, 10000 nM to 1.52 nM; N.D. = no cytotoxicity until 10 μM; read-out: Activity: IC50 value of Exemplary Compound to MRC-5 cell line
Description: 4. Cell Viability Assay for MRC-5 Cell Line
(1) Culture of MRC-5 Cell Line
Passage of cultured cells was maintained within P15.
(2) Treatment of Compounds of the Present Invention
Then, it was cultured in 37° C.
(3) Cytotoxicity Experiment
CO2 incubator for 4 hours.

T1 sequence (P53350 whole entry): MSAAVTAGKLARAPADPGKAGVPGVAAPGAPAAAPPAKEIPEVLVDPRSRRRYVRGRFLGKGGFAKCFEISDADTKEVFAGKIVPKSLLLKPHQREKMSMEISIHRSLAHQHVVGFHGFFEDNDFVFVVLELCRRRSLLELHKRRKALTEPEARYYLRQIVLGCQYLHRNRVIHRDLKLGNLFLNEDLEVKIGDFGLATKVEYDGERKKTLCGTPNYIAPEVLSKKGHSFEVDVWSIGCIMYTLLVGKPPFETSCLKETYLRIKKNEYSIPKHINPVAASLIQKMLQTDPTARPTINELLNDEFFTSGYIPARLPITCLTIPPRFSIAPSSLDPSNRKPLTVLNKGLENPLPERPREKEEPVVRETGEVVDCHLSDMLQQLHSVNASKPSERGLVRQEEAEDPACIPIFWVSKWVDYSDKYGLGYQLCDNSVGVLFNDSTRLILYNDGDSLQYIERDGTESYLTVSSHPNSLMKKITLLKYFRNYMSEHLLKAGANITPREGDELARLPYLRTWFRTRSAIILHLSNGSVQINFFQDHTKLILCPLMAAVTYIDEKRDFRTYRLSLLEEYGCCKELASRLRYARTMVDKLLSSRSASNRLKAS

Row | Activity: ratio of the luminescense value of each Exemplary Compound treatment group to DMSO treatment group (PLK1) | SMILES | IC50 (NCI-H526 cell line) | IC50 (MRC-5 cell line)
1 | ++ (++<0.6) | COc1cc(C(=O)NC2CCN(C(=O)CCCNc3cccc4c3CN(C3CCC(=O)NC3=O)C4=O)CC2)ccc1Nc1ncc2c(n1)N(C1CCCC1)CC(F)(F)C(=O)N2C (stereo not drawn) [Compound 26, 4-((9-cyclopentyl-7,7-difluoro-5-methyl-6-oxo-6,7,8,9-tetrahydro-5H-pyrimido[4,5-b][1,4]diazepin-2-yl)amino)-N-(1-(4-((2-(2,6-dioxopiperidin-3-yl)-1-oxoisoindolin-4-yl)amino)butanoyl)piperidin-4-yl)-3-methoxybenzamide] | < 0.05 µM | > 10 µM
2 | ++ (++<0.6) | COc1cc(C(=O)NN2CCN(C(=O)CCC3CCN(c4ccc5c(c4)CN(C4CCC(=O)NC4=O)C5=O)CC3)CC2)ccc1Nc1ncc2c(n1)N(C(C)C)CC(F)(F)C(=O)N2C (stereo not drawn) [Compound 59, 4-((7,7-difluoro-9-isopropyl-5-methyl-6-oxo-6,7,8,9-tetrahydro-5H-pyrimido[4,5-b][1,4]diazepin-2-yl)amino)-N-(4-(3-(1-(2-(2,6-dioxopiperidin-3-yl)-1-oxoisoindolin-5-yl)piperidin-4-yl)propanoyl)piperazin-1-yl)-3-methoxybenzamide] | < 0.03 µM | > 10 µM
3 | ++ (++<0.6) | COc1cc(C(=O)N(C)C2CCN(C(=O)CCN3CCN(c4cccc5c4C(=O)N(C4CCC(=O)NC4=O)C5=O)CC3)CC2)ccc1Nc1ncc2c(n1)N(C1CCCC1)CC(F)(F)C(=O)N2C (stereo not drawn) [Compound 77, 4-((9-cyclopentyl-7,7-difluoro-5-methyl-6-oxo-6,7,8,9-tetrahydro-5H-pyrimido[4,5-b][1,4]diazepin-2-yl)amino)-N-(1-(3-(4-(2-(2,6-dioxopiperidin-3-yl)-1,3-dioxoisoindolin-4-yl)piperazin-1-yl)propanoyl)piperidin-4-yl)-3-methoxy-N-methylbenzamide] | < 0.1 µM | > 10 µM
4 | ++ (++<0.6) | COc1cc(C(=O)NC2CCN(C(=O)CCN3CCN(c4cccc5c4C(=O)N(C4CCC(=O)NC4=O)C5=O)CC3)CC2)ccc1Nc1ncc2c(n1)N(C1CCCC1)CC(C)(C)C(=O)N2C (stereo not drawn) [Compound 121, 4-((9-cyclopentyl-5,7,7-trimethyl-6-oxo-6,7,8,9-tetrahydro-5H-pyrimido[4,5-b][1,4]diazepin-2-yl)amino)-N-(1-(3-(4-(2-(2,6-dioxopiperidin-3-yl)-1,3-dioxoisoindolin-4-yl)piperazin-1-yl)propanoyl)piperidin-4-yl)-3-methoxybenzamide] | < 0.2 µM | > 10 µM
5 | ++ (++<0.6) | COc1cc(C(=O)NN2CCN(C(=O)CCC3CCN(c4cccc5c4CN(C4CCC(=O)NC4=O)C5=O)CC3)CC2)ccc1Nc1ncc2c(n1)N(C(C)C)CC(F)(F)C(=O)N2C (stereo not drawn) [Compound 58, 4-((7,7-difluoro-9-isopropyl-5-methyl-6-oxo-6,7,8,9-tetrahydro-5H-pyrimido[4,5-b][1,4]diazepin-2-yl)amino)-N-(4-(3-(1-(2-(2,6-dioxopiperidin-3-yl)-1-oxoisoindolin-4-yl)piperidin-4-yl)propanoyl)piperazin-1-yl)-3-methoxybenzamide] | < 0.05 µM | > 10 µM
6 | ++ (++<0.6) | COc1cc(C(=O)NN2CCC(CCN3CCN(c4ccc5c(c4)C(=O)N(C4CCC(=O)NC4=O)C5=O)CC3)C2)ccc1Nc1ncc2c(n1)N(C1CCCC1)CC(F)(F)C(=O)N2C (stereo not drawn) [Compound 149, 4-((9-cyclopentyl-7,7-difluoro-5-methyl-6-oxo-6,7,8,9-tetrahydro-5H-pyrimido[4,5-b][1,4]diazepin-2-yl)amino)-N-(3-(2-(4-(2-(2,6-dioxopiperidin-3-yl)-1,3-dioxoisoindolin-5-yl)piperazin-1-yl)ethyl)pyrrolidin-1-yl)-3-methoxybenzamide] | < 0.05 µM | > 10 µM
7 | ++ (++<0.6) | COc1cc(C(=O)NC2CCN(CCOCCOCCNc3cccc4c3CN(C3CCC(=O)NC3=O)C4=O)CC2)ccc1Nc1ncc2c(n1)N(C1CCCC1)CC(F)(F)C(=O)N2C (stereo not drawn) [Compound 18, 4-((9-cyclopentyl-7,7-difluoro-5-methyl-6-oxo-6,7,8,9-tetrahydro-5H-pyrimido[4,5-b][1,4]diazepin-2-yl)amino)-N-(1-(2-(2-(2-((2-(2,6-dioxopiperidin-3-yl)-1-oxoisoindolin-4-yl)amino)ethoxy)ethoxy)ethyl)piperidin-4-yl)-3-methoxybenzamide] | < 0.03 µM | > 10 µM
8 | +++ (+++: <0.3) | COc1cc(C(=O)NN2CCN(C3CN(c4ccc5c(c4)C(=O)N(C4CCC(=O)NC4=O)C5=O)C3)CC2)ccc1Nc1ncc2c(n1)N(C1CCCC1)CC(F)(F)C(=O)N2C (stereo not drawn) [Compound 201, 4-((9-cyclopentyl-7,7-difluoro-5-methyl-6-oxo-6,7,8,9-tetrahydro-5H-pyrimido[4,5-b][1,4]diazepin-2-yl)amino)-N-(4-(1-(2-(2,6-dioxopiperidin-3-yl)-1,3-dioxoisoindolin-5-yl)azetidin-3-yl)piperazin-1-yl)-3-methoxybenzamide] | < 0.05 µM | > 10 µM
9 | +++ (+++: <0.3) | COc1cc(C(=O)NC2CCN(C(=O)CCN3CCN(c4cccc5c4C(=O)N(C4CCC(=O)NC4=O)C5=O)CC3)CC2)ccc1Nc1ncc2c(n1)N(C1CCC1)CC(F)(F)C(=O)N2C (stereo not drawn) [Compound 68, 4-((9-cyclobutyl-7,7-difluoro-5-methyl-6-oxo-6,7,8,9-tetrahydro-5H-pyrimido[4,5-b][1,4]diazepin-2-yl)amino)-N-(1-(3-(4-(2-(2,6-dioxopiperidin-3-yl)-1,3-dioxoisoindolin-4-yl)piperazin-1-yl)propanoyl)piperidin-4-yl)-3-methoxybenzamide] | < 0.1 µM | > 10 µM
10 | ++ (++<0.6) | COc1cc(C(=O)N[C@H]2CC[C@@H](N(C)CCN3CCN(c4cccc5c4C(=O)N(C4CCC(=O)NC4=O)C5=O)CC3)CC2)ccc1Nc1ncc2c(n1)N(C1CCCC1)CC(F)(F)C(=O)N2C (stereo partly drawn) [Compound 128, 4-((9-cyclopentyl-7,7-difluoro-5-methyl-6-oxo-6,7,8,9-tetrahydro-5H-pyrimido[4,5-b][1,4]diazepin-2-yl)amino)-N-((1s,4s)-4-((2-(4-(2-(2,6-dioxopiperidin-3-yl)-1,3-dioxoisoindolin-4-yl)piperazin-1-yl)ethyl)(methyl)amino)cyclohexyl)-3-methoxybenzamide] | < 0.05 µM | 18.8 µM
11 | ++ (++<0.6) | COc1cc(C(=O)N[C@@H]2CCN(C(=O)COc3cccc4c3C(=O)N(C3CCC(=O)NC3=O)C4=O)C2)ccc1Nc1ncc2c(n1)N(C1CCCC1)CC(F)(F)C(=O)N2C (stereo partly drawn) [Compound 39, 4-((9-cyclopentyl-7,7-difluoro-5-methyl-6-oxo-6,7,8,9-tetrahydro-5H-pyrimido[4,5-b][1,4]diazepin-2-yl)amino)-N-((3R)-1-(2-((2-(2,6-dioxopiperidin-3-yl)-1,3-dioxoisoindolin-4-yl)oxy)acetyl)pyrrolidin-3-yl)-3-methoxybenzamide] | < 0.1 µM | > 10 µM
12 | ++ (++<0.6) | COc1cc(C(=O)N[C@H]2CC[C@H](N(C)CCCOc3cccc4c3C(=O)N(C3CCC(=O)NC3=O)C4=O)CC2)ccc1Nc1ncc2c(n1)N(C1CCCC1)CC(F)(F)C(=O)N2C (stereo partly drawn) [Compound 15, 4-((9-cyclopentyl-7,7-difluoro-5-methyl-6-oxo-6,7,8,9-tetrahydro-5H-pyrimido[4,5-b][1,4]diazepin-2-yl)amino)-N-((1r,4r)-4-((3-((2-(2,6-dioxopiperidin-3-yl)-1,3-dioxoisoindolin-4-yl)oxy)propyl)(methyl)amino)cyclohexyl)-3-methoxybenzamide] | < 0.05 µM | 16.7 µM

Row | SMILES | Activity: ratio of the luminescense value of each Exemplary Compound treatment group to DMSO treatment group (PLK1) | IC50 (NCI-H526 cell line) | IC50 (MRC-5 cell line)
13 | COc1cc(C(=O)NN2CCC(N3CC4(CCN(c5cccc6c5C(=O)N(C5CCC(=O)NC5=O)C6=O)CC4)C3)CC2)ccc1Nc1ncc2c(n1)N(C(C)C)CC(F)(F)C(=O)N2C (stereo not drawn) [Compound 213, 4-((7,7-difluoro-9-isopropyl-5-methyl-6-oxo-6,7,8,9-tetrahydro-5H-pyrimido[4,5-b][1,4]diazepin-2-yl)amino)-N-(4-(7-(2-(2,6-dioxopiperidin-3-yl)-1,3-dioxoisoindolin-4-yl)-2,7-diazaspiro[3.5]nonan-2-yl)piperidin-1-yl)-3-methoxybenzamide] | ++ (++<0.6) | < 0.03 µM | > 10 µM
